PubChem BioAssay (NCI)
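A five-concentration, 48-hour dose response in 96-well plates underlies each endpoint, interpolated linearly between surrounding concentrations. GI50 = concentration required for 50% inhibition of growth. At the TGI there is no net growth.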

Assays:
Assay in all cases: inhibition of tumour cell growth, NCI panel, 48 h
COLO 205 colon = test system: COLO 205 colon
UACC-62 melanoma = test system: UACC-62 melanoma
SK-MEL-28 melanoma = test system: SK-MEL-28 melanoma
OVCAR-5 ovarian = test system: OVCAR-5 ovarian
EKVX NSCLC = test system: EKVX NSCLC
OVCAR-8 ovarian = test system: OVCAR-8 ovarian
NCI-H23 lung = test system: NCI-H23 lung
SW-620 colon = test system: SW-620 colon
LOX IMVI melanoma = test system: LOX IMVI melanoma
NCI-H226 lung = test system: NCI-H226 lung

Row | Compound | GI50 (COLO 205 colon) | TGI (COLO 205 colon) | GI50 (UACC-62 melanoma) | TGI (UACC-62 melanoma) | GI50 (SK-MEL-28 melanoma) | TGI (SK-MEL-28 melanoma) | GI50 (OVCAR-5 ovarian) | TGI (OVCAR-5 ovarian) | GI50 (EKVX NSCLC) | TGI (EKVX NSCLC) | GI50 (OVCAR-8 ovarian) | TGI (OVCAR-8 ovarian) | GI50 (NCI-H23 lung) | TGI (NCI-H23 lung) | GI50 (SW-620 colon) | TGI (SW-620 colon) | GI50 (LOX IMVI melanoma) | TGI (LOX IMVI melanoma) | GI50 (NCI-H226 lung) | TGI (NCI-H226 lung)
1 | CCCn1cnc2c(SCc3ccccc3Cl)nc(N)nc21 | 10.7 µM | > 100 µM | 8.53 µM | 22.7 µM | 27 µM | > 100 µM | 25.7 µM | 91.9 µM | 24.2 µM | > 100 µM | 15.3 µM | > 100 µM | 30 µM | > 100 µM | 11.9 µM | > 100 µM | 4.86 µM | 20.3 µM | 16.4 µM | > 100 µM
2 | O=C1CCCCN1CCCCC#Cc1ccccc1C#Cc1ccc([N+](=O)[O-])cc1 | 2.75 µM | 7.17 µM | 5.77 µM | 20.3 µM | 10.5 µM | 22.4 µM | 5.25 µM | 18.7 µM | 5.26 µM | 40 µM | 2.81 µM | 9.13 µM | 4.23 µM | 17.1 µM | 5.18 µM | 18.3 µM | 2.79 µM | 8.87 µM | 5.03 µM | 22.1 µM
3 | COc1ccc(/C(COc2c(-c3ccccc3)oc3ccccc3c2=O)=N\O)cc1 | 12 µM | 30.9 µM | 12.7 µM | 43.5 µM | 15 µM | > 50 µM | – | – | 14.2 µM | > 50 µM | 47.6 µM | > 50 µM | 24.2 µM | > 50 µM | 19.5 µM | > 50 µM | 12.4 µM | 26.5 µM | 20.8 µM | > 50 µM
4 | O=C(O)CNS(=O)(=O)c1ccc(NCc2ccccc2)cc1 | – | > 100 µM | – | > 100 µM | – | > 100 µM | – | > 100 µM | – | > 100 µM | – | > 100 µM | – | > 100 µM | – | > 100 µM | – | > 100 µM | – | > 100 µM
5 | CCOC(=O)[C]1([Bi]([CH3])[CH3])N=NC(C(=O)OC)=C1C(=O)OC (stereo not given) | 19.8 µM | 35.9 µM | 19.5 µM | 34.4 µM | 16.2 µM | 30.4 µM | > 10 µM | > 10 µM | 18.7 µM | 36.5 µM | 19.2 µM | 42.3 µM | 18 µM | 35 µM | 16.6 µM | 32.8 µM | – | – | 20.6 µM | 41.4 µM
6 | O=C(/N=N/C(=O)OCc1ccccc1)OCc1ccccc1 | – | > 100 µM | – | > 100 µM | – | – | – | > 100 µM | – | > 100 µM | – | > 100 µM | – | > 100 µM | – | > 100 µM | – | > 100 µM | – | –
7 | Brc1cccc(C=NC23CC4CC(CC(C4)C2)C3)c1 | – | > 100 µM | – | > 100 µM | – | > 100 µM | – | > 100 µM | – | > 100 µM | – | > 100 µM | – | > 100 µM | – | > 100 µM | – | > 100 µM | – | > 100 µM
8 | Cc1ccc2c(c1)[n+]([O-])c(N)n[n+]2[O-] | – | > 100 µM | – | – | – | > 100 µM | – | > 100 µM | – | > 100 µM | – | > 100 µM | – | > 100 µM | – | > 100 µM | – | > 100 µM | – | > 100 µM
9 | NC(CCC(=O)NC(CSSCCCCS(=O)O)C(=O)NCC(=O)O)C(=O)O (stereo not given) | – | > 100 µM | – | > 100 µM | – | > 100 µM | – | > 100 µM | – | > 100 µM | – | > 100 µM | – | > 100 µM | – | > 100 µM | – | > 100 µM | – | –
10 | CCC[CH2][Sn]1([CH2]CCC)[O]Cc2nc(C)ccc2[O]1 | 4.38 µM | 15.9 µM | 2.06 µM | 4.57 µM | 10.6 µM | 22.4 µM | 12.3 µM | 24.8 µM | 4.36 µM | 18.2 µM | 9.1 µM | 21.7 µM | 1.84 µM | 4.79 µM | 2.81 µM | 12.1 µM | 1.95 µM | 3.97 µM | 14 µM | 27.1 µM
11 | CS(=O)(=O)c1ccc([C@H]2O[C@@H](CO)C[C@]2(O)c2ccc(S(C)(=O)=O)cc2)cc1 | > 100 µM | > 100 µM | > 100 µM | > 100 µM | > 100 µM | > 100 µM | > 100 µM | > 100 µM | > 100 µM | > 100 µM | > 100 µM | > 100 µM | > 100 µM | > 100 µM | > 100 µM | > 100 µM | > 100 µM | > 100 µM | > 100 µM | > 100 µM
12 | CC[C@]1(O)C[C@@H]2CN(CCc3c([nH]c4ccccc34)[C@@](C(=O)OC)(c3cc4c(cc3OC)N(C)[C@H]3[C@@](O)(C(=O)OC)[C@H](OC(C)=O)[C@]5(CC)C=CCN6CC[C@]43[C@@H]65)C2)C1 | < 0.01 µM | < 0.0194 µM | < 0.01 µM | 17.4 µM | 11.1 µM | 28 µM | < 0.01 µM | 87.7 µM | – | > 79 µM | < 0.01 µM | > 100 µM | < 0.01 µM | > 100 µM | < 0.01 µM | > 100 µM | < 0.01 µM | 14.8 µM | – | 17.7 µM
13 | CC1(C)OC2[C@@H](CNC(=O)NC(=O)NC(=O)CI)O[C@@H](n3cnc4c(NC(=O)Nc5ccccc5)ncnc43)[C@H]2O1 (stereo not given in full) | 6.44 µM | 14.5 µM | 8.44 µM | 17.1 µM | 8.53 µM | 16 µM | 8.74 µM | 18 µM | 28.4 µM | > 50 µM | 9.45 µM | 22.7 µM | 7.46 µM | 16.7 µM | 2.08 µM | 8.13 µM | 0.907 µM | 1.74 µM | 8.96 µM | 20.3 µM
14 | Oc1ccc2ccccc2c1N=Nc1nccs1 | 1.6 µM | 13.6 µM | 2.3 µM | 24.3 µM | 2.55 µM | 18.6 µM | 5.61 µM | 25.6 µM | 0.807 µM | > 54.3 µM | 0.494 µM | 42 µM | 5.83 µM | 27.8 µM | 0.396 µM | 19.5 µM | 0.328 µM | 17.5 µM | 2.75 µM | > 52.9 µM
15 | COc1ccc(NC2=CC(=O)C(=O)c3ccccc32)nn1 | – | 3.21 µM | – | 3.01 µM | – | 2.3 µM | – | 3.45 µM | – | 9.82 µM | – | 5.35 µM | – | 6.2 µM | – | 3.4 µM | – | 4.14 µM | – | 5.5 µM
